# Measurements published in PubChem BioAssay AID2060889 (Molecular Pharmacology Branch, DTP, NCI, 2025).
# pIC50: −log10 of the molar value.
# Test system: LG0567-F671-PDC complex spheroids viability
# Experiment: Anticancer human tumor LG0567-F671-PDC patient-derived lung adenocarcinoma cell line growth inhibition [RAS]
# Conditions: for pIC50: curve of first compound; for viability, T/C: stronger effect = lower value
# Summary of the method: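 Tumour cells grown as complex spheroids with HUVEC endothelial cells and mesenchymal stem cells, treated with RAS pathway inhibitor combinations. Each agent spans half-log steps from near clinical Cmax, or 10 microM where Cmax is unknown.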
# 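Also: spheroids exposed to compound for seven days before readout.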
# 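For pIC50 in this document: luminescence signal used as a proxy for viable cells.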
smiles,measurement,setting,value
C[C@@H](NC(=O)c1ncnc(N)c1Cl)c1ncc(C(=O)Nc2cc(C(F)(F)F)c(Cl)cn2)s1 + C#Cc1c(F)ccc2cc(O)cc(-c3ncc4c(N5CC6CCC(C5)N6)nc(OCC56CCCN5CC(F)C6)nc4c3F)c12,pIC50,second compound 0.0316 µM,< 5.00
same,pIC50,second compound 0.1 µM,< 5.00
same,pIC50,second compound 0.316 µM,5.12
same,pIC50,second compound 1 µM,> 7.50
same,pIC50,second compound 3.16 µM,> 7.50
same,pIC50,second compound 10 µM,> 7.50
same,"viability, T/C","second compound 0.0316 µM, first compound 0.0316 µM",99.1%
same,"viability, T/C","second compound 0.0316 µM, first compound 0.1 µM",100%
same,"viability, T/C","second compound 0.0316 µM, first compound 0.316 µM",125%
same,"viability, T/C","second compound 0.0316 µM, first compound 1 µM",103%
same,"viability, T/C","second compound 0.0316 µM, first compound 3.16 µM",94.9%
same,"viability, T/C","second compound 0.0316 µM, first compound 10 µM",56.1%
same,"viability, T/C","second compound 0.1 µM, first compound 0.0316 µM",81.2%
same,"viability, T/C","second compound 0.1 µM, first compound 0.1 µM",105%
same,"viability, T/C","second compound 0.1 µM, first compound 0.316 µM",88.8%
same,"viability, T/C","second compound 0.1 µM, first compound 1 µM",92.8%
same,"viability, T/C","second compound 0.1 µM, first compound 3.16 µM",82%
same,"viability, T/C","second compound 0.1 µM, first compound 10 µM",57%
same,"viability, T/C","second compound 0.316 µM, first compound 0.0316 µM",73.5%
same,"viability, T/C","second compound 0.316 µM, first compound 0.1 µM",80.9%
same,"viability, T/C","second compound 0.316 µM, first compound 0.316 µM",74.2%
same,"viability, T/C","second compound 0.316 µM, first compound 1 µM",67.7%
same,"viability, T/C","second compound 0.316 µM, first compound 3.16 µM",67%
same,"viability, T/C","second compound 0.316 µM, first compound 10 µM",44.7%
same,"viability, T/C","second compound 1 µM, first compound 0.0316 µM",40.5%
same,"viability, T/C","second compound 1 µM, first compound 0.1 µM",43.7%
same,"viability, T/C","second compound 1 µM, first compound 0.316 µM",52.5%
same,"viability, T/C","second compound 1 µM, first compound 1 µM",42.5%
same,"viability, T/C","second compound 1 µM, first compound 3.16 µM",51.8%
same,"viability, T/C","second compound 1 µM, first compound 10 µM",34%
same,"viability, T/C","second compound 3.16 µM, first compound 0.0316 µM",26.1%
same,"viability, T/C","second compound 3.16 µM, first compound 0.1 µM",28.6%
same,"viability, T/C","second compound 3.16 µM, first compound 0.316 µM",29.2%
same,"viability, T/C","second compound 3.16 µM, first compound 1 µM",25.6%
same,"viability, T/C","second compound 3.16 µM, first compound 3.16 µM",26.6%
same,"viability, T/C","second compound 3.16 µM, first compound 10 µM",23.2%
same,"viability, T/C","second compound 10 µM, first compound 0.0316 µM",14.9%
same,"viability, T/C","second compound 10 µM, first compound 0.1 µM",17.1%
same,"viability, T/C","second compound 10 µM, first compound 0.316 µM",16.5%
same,"viability, T/C","second compound 10 µM, first compound 1 µM",19.4%
same,"viability, T/C","second compound 10 µM, first compound 3.16 µM",21.2%
same,"viability, T/C","second compound 10 µM, first compound 10 µM",17.9%
